Experimental data taken from ChEMBL document CHEMBL1649524, “Resistance selection studies comparing the activity of razupenem (PTZ601) to vancomycin and linezolid against eight methicillin-resistant and two methicillin-susceptible Staphylococcus aureus strains” (2009).

What was measured:
Format in all cases: functional
[1] = system: Staphylococcus aureus; assay: Antimicrobial activity against methicillin-susceptible Staphylococcus aureus 543 measured on day 25 by macrodilution method; details: Staphylococcus aureus, 543, 600 h
[2] = system: Staphylococcus aureus; assay: Antimicrobial activity against methicillin-resistant Staphylococcus aureus 547 measured on day 35 by macrodilution method
[3] = system: Staphylococcus aureus; assay: Antimicrobial activity against vancomycin-intermediate Staphylococcus aureus 555 measured on day 40 by macrodilution method
[4] = system: Staphylococcus aureus; assay: Antimicrobial activity against methicillin-susceptible Staphylococcus aureus 543 measured on day 40 by macrodilution method
[5] = system: Staphylococcus aureus; assay: Antimicrobial activity against vancomycin-resistant Staphylococcus aureus 510 by macrodilution method
[6] = system: Staphylococcus aureus; assay: Antimicrobial activity against vancomycin-intermediate Staphylococcus aureus 1287 measured on day 20 by macrodilution method; details: Staphylococcus aureus, 1287, 480 h
[7] = system: Staphylococcus aureus; assay: Antimicrobial activity against vancomycin-intermediate Staphylococcus aureus 555 measured on day 20 by macrodilution method; details: Staphylococcus aureus, 555, 480 h
[8] = system: Staphylococcus aureus; assay: Antimicrobial activity against methicillin-susceptible Staphylococcus aureus 540 by macrodilution method
[9] = system: Staphylococcus aureus; assay: Antimicrobial activity against vancomycin-resistant Staphylococcus aureus 510 after 50 passages by macrodilution method
[10] = system: Staphylococcus aureus; assay: Antimicrobial activity against vancomycin-intermediate Staphylococcus aureus 1287 measured on day 35 by macrodilution method
[11] = system: Staphylococcus aureus; assay: Antimicrobial activity against vancomycin-intermediate Staphylococcus aureus 1287 measured on day 30 by macrodilution method
[12] = system: Staphylococcus aureus; assay: Antimicrobial activity against vancomycin-resistant Staphylococcus aureus 509 after 50 passages by macrodilution method
[13] = system: Staphylococcus aureus; assay: Antimicrobial activity against heterogeneous vancomycin-intermediate Staphylococcus aureus 168 measured on day 40 by macrodilution method
[14] = system: Staphylococcus aureus; assay: Antimicrobial activity against methicillin-resistant Staphylococcus aureus 525 measured on day 30 by macrodilution method
[15] = system: Staphylococcus aureus; assay: Antimicrobial activity against vancomycin-resistant Staphylococcus aureus 509 measured on day 40 by macrodilution method
[16] = system: Staphylococcus aureus; assay: Antimicrobial activity against heterogeneous vancomycin-intermediate Staphylococcus aureus 168 measured on day 25 by macrodilution method; details: Staphylococcus aureus, 168, 600 h
[17] = system: Staphylococcus aureus; assay: Antimicrobial activity against methicillin-susceptible Staphylococcus aureus 540 measured after 10 antibiotic-free subculturing by macrodilution method
[18] = system: Staphylococcus aureus; assay: Antimicrobial activity against vancomycin-resistant Staphylococcus aureus 509 measured on day 45 by macrodilution method
[19] = system: Staphylococcus aureus; assay: Antimicrobial activity against vancomycin-intermediate Staphylococcus aureus 1287 measured on day 40 by macrodilution method
[20] = system: Staphylococcus aureus; assay: Antimicrobial activity against vancomycin-intermediate Staphylococcus aureus 555 measured after 10 antibiotic-free subculturing by macrodilution method
[21] = system: Staphylococcus aureus; assay: Antimicrobial activity against methicillin-resistant Staphylococcus aureus 547 measured on day 45 by macrodilution method
[22] = system: Staphylococcus aureus; assay: Antimicrobial activity against heterogeneous vancomycin-intermediate Staphylococcus aureus 168 measured on day 30 by macrodilution method
[23] = system: Staphylococcus aureus; assay: Antimicrobial activity against vancomycin-resistant Staphylococcus aureus 510 measured on day 45 by macrodilution method
[24] = system: Staphylococcus aureus; assay: Antimicrobial activity against heterogeneous vancomycin-intermediate Staphylococcus aureus 168 measured on day 50 by macrodilution method
[25] = system: Staphylococcus aureus; assay: Antimicrobial activity against vancomycin-intermediate Staphylococcus aureus 555 measured on day 25 by macrodilution method; details: Staphylococcus aureus, 555, 600 h
[26] = system: Staphylococcus aureus; assay: Antimicrobial activity against heterogeneous vancomycin-intermediate Staphylococcus aureus 873 measured on day 25 by macrodilution method; details: Staphylococcus aureus, 873, 600 h
[27] = system: Staphylococcus aureus; assay: Antimicrobial activity against vancomycin-resistant Staphylococcus aureus 510 measured on day 5 by macrodilution method; details: Staphylococcus aureus, 510, 120 h
[28] = system: Staphylococcus aureus; assay: Antimicrobial activity against methicillin-susceptible Staphylococcus aureus 540 measured on day 50 by macrodilution method
[29] = system: Staphylococcus aureus; assay: Antimicrobial activity against methicillin-resistant Staphylococcus aureus 547 by macrodilution method
[30] = system: Staphylococcus aureus; assay: Antimicrobial activity against methicillin-resistant Staphylococcus aureus 547 measured on day 15 by macrodilution method; details: Staphylococcus aureus, 547, 360 h
[31] = system: Staphylococcus aureus; assay: Antimicrobial activity against methicillin-susceptible Staphylococcus aureus 543 by macrodilution method
[32] = system: Staphylococcus aureus; assay: Antimicrobial activity against methicillin-resistant Staphylococcus aureus 547 measured on day 40 by macrodilution method
[33] = system: Staphylococcus aureus; assay: Antimicrobial activity against methicillin-resistant Staphylococcus aureus 525 measured on day 25 by macrodilution method; details: Staphylococcus aureus, 525, 600 h
[34] = system: Staphylococcus aureus; assay: Antimicrobial activity against vancomycin-intermediate Staphylococcus aureus 1287 by macrodilution method
[35] = system: Staphylococcus aureus; assay: Antimicrobial activity against heterogeneous vancomycin-intermediate Staphylococcus aureus 873 measured on day 5 by macrodilution method; details: Staphylococcus aureus, 873, 120 h
[36] = system: Staphylococcus aureus; assay: Antimicrobial activity against methicillin-susceptible Staphylococcus aureus 543 measured on day 45 by macrodilution method
[37] = system: Staphylococcus aureus; assay: Antimicrobial activity against vancomycin-resistant Staphylococcus aureus 509 measured on day 10 by macrodilution method; details: Staphylococcus aureus, 509, 240 h
[38] = system: Staphylococcus aureus; assay: Antimicrobial activity against vancomycin-resistant Staphylococcus aureus 509 measured on day 20 by macrodilution method; details: Staphylococcus aureus, 509, 480 h
[39] = system: Staphylococcus aureus; assay: Antimicrobial activity against vancomycin-resistant Staphylococcus aureus 509 by macrodilution method
[40] = system: Staphylococcus aureus; assay: Antimicrobial activity against vancomycin-intermediate Staphylococcus aureus 1287 measured on day 50 by macrodilution method
[41] = system: Staphylococcus aureus; assay: Antimicrobial activity against methicillin-susceptible Staphylococcus aureus 543 measured on day 5 by macrodilution method; details: Staphylococcus aureus, 543, 120 h
[42] = system: Staphylococcus aureus; assay: Antimicrobial activity against heterogeneous vancomycin-intermediate Staphylococcus aureus 168 after 50 passages by macrodilution method
[43] = system: Staphylococcus aureus; assay: Antimicrobial activity against methicillin-susceptible Staphylococcus aureus 540 measured on day 25 by macrodilution method; details: Staphylococcus aureus, 540, 600 h
[44] = system: Staphylococcus aureus; assay: Antimicrobial activity against vancomycin-resistant Staphylococcus aureus 510 measured on day 15 by macrodilution method; details: Staphylococcus aureus, 510, 360 h
[45] = system: Staphylococcus aureus; assay: Antimicrobial activity against methicillin-resistant Staphylococcus aureus 525 measured on day 5 by macrodilution method; details: Staphylococcus aureus, 525, 120 h
[46] = system: Staphylococcus aureus; assay: Antimicrobial activity against vancomycin-resistant Staphylococcus aureus 510 measured on day 35 by macrodilution method
[47] = system: Staphylococcus aureus; assay: Antimicrobial activity against methicillin-susceptible Staphylococcus aureus 540 measured on day 30 by macrodilution method
[48] = system: Staphylococcus aureus; assay: Antimicrobial activity against methicillin-resistant Staphylococcus aureus 547 measured after 10 antibiotic-free subculturing by macrodilution method
[49] = system: Staphylococcus aureus; assay: Antimicrobial activity against vancomycin-resistant Staphylococcus aureus 509 measured on day 35 by macrodilution method
[50] = system: Staphylococcus aureus; assay: Antimicrobial activity against methicillin-resistant Staphylococcus aureus 547 measured on day 30 by macrodilution method
[51] = system: Staphylococcus aureus; assay: Antimicrobial activity against methicillin-susceptible Staphylococcus aureus 540 measured on day 40 by macrodilution method
[52] = system: Staphylococcus aureus; assay: Antimicrobial activity against methicillin-resistant Staphylococcus aureus 547 after 23 passages by macrodilution method

Measured: MIC

C[C@H]1C=C(c2csc(SC3=C(C(=O)O)N4C(=O)[C@H]([C@@H](C)O)[C@H]4[C@H]3C)n2)CN1 [RAZUPENEM]
0.03 µg/mL: [1] | [41] | [43]
0.125 µg/mL: [28] | [48]
0.016 µg/mL: [8] | [17] | [31]
16 µg/mL: [2] | [11] | [21] | [32]
8 µg/mL: [13] | [14] | [16] | [22] | [23] | [24] | [26] | [42]
0.5 µg/mL: [6] | [29]
4 µg/mL: [3] | [9] | [12] | [15] | [18] | [33] | [38] | [40] | [46] | [47] | [49] | [52]
2 µg/mL: [7] | [10] | [19] | [20] | [25] | [27] | [30] | [35] | [37] | [39] | [44] | [45] | [50]
0.06 µg/mL: [4] | [34] | [36] | [51]
1 µg/mL: [5]
